According to article PMC8445441, “Elucidating the mechanism by which synthetic helper peptides sensitize Pseudomonas aeruginosa to multiple antibiotics” (PLoS Pathogens, 2021):
Like-named read-outs stand apart in the source and are kept apart here.

Experiments:
P. aeruginosa AUMC-Pa-3 = test: microbe, parasite or virus in culture
Procedure, shortened: (§1)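 After 18 h at 37 °C, the lowest concentration showing no visible growth was read as the MIC. Drugs were serially diluted two-fold in MHB and combined with an equal volume of inoculum (~1 × 10^6 CFU/mL), following CLSI broth microdilution; run in triplicate.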

P. aeruginosa AUMC-Pa-4 = test: microbe, parasite or virus in culture
Procedure, shortened: as §1

P. aeruginosa AUMC-Pa-5 = test: microbe, parasite or virus in culture; details: strain AUMC-Pa-5
Procedure, shortened: as §1

P. aeruginosa AUMC-Pa-6 = test: microbe, parasite or virus in culture; details: strain AUMC-Pa-6
Procedure, shortened: as §1

P. aeruginosa PAO1 = test: microbe, parasite or virus in culture
Procedure, shortened: as §1

P. aeruginosa ATCC27853 = test: microbe, parasite or virus in culture; parameters: MICa: MIC of the antibiotic / MICac: MIC of the antibiotic in the combination: unit not given beside the values
Procedure, shortened: as §1

P. aeruginosa NR-31040 = test: microbe, parasite or virus in culture; parameters: MICa: MIC of the antibiotic / MICac: MIC of the antibiotic in the combination: unit not given beside the values; details: strain NR-31040
Procedure, shortened: as §1

P. aeruginosa NR-31041 = test: microbe, parasite or virus in culture; parameters: MICa: MIC of the antibiotic / MICac: MIC of the antibiotic in the combination: unit not given beside the values
Procedure, shortened: as §1

P. aeruginosa PA14 = test: microbe, parasite or virus in culture; parameters: MICa: MIC of the antibiotic / MICac: MIC of the antibiotic in the combination: unit not given beside the values
Procedure, shortened: as §1

P. aeruginosa PAK = test: microbe, parasite or virus in culture; parameters: MICa: MIC of the antibiotic / MICac: MIC of the antibiotic in the combination: unit not given beside the values
Procedure, shortened: as §1

P. aeruginosa HM-214 = details: strain HM-214; antibiotic + D-11 (MICb/MICbc 128/4)
Procedure, shortened: as §1

P. aeruginosa AUMC-Pa-1 = details: strain AUMC-Pa-1; antibiotic + D-11 (MICb/MICbc 128/4)
Procedure, shortened: as §1

P. aeruginosa AUMC-Pa-2 = details: strain AUMC-Pa-2; antibiotic + D-11 (MICb/MICbc 64/4)
Procedure, shortened: as §1

[1] = system: clinical P. aeruginosa isolates; test: microbe, parasite or virus in culture; details: Pseudomonas aeruginosa, 18 h
Procedure, shortened: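 MIC is the lowest drug concentration showing no visible growth after 18 h at 37 °C. Two-fold dilutions in MHB were combined with an equal volume of bacterial suspension (about 1 × 10^6 CFU/mL), following CLSI broth microdilution, in triplicate.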

[2] = antibiotic + D-11 (MICb/MICbc 64/4)
[3] = antibiotic alone, unit not given
[4] = with D-11 at MICbc 4, unit not given

CO[C@H]1[C@H](OC(=O)c2ccc(C)[nH]2)[C@H](O)[C@@H](Oc2ccc3c(O)c(NC(=O)c4c[nH]c(C(=O)Nc5c(O)c6ccc(O[C@H]7OC(C)(C)[C@@H](OC)[C@H](OC(=O)c8ccc(C)[nH]8)[C@@H]7O)c(C)c6oc5=O)c4C)c(=O)oc3c2C)OC1(C)C [Coumermycin A1]
MIC (P. aeruginosa AUMC-Pa-3; Pseudomonas aeruginosa, AUMCPA3, 18 h, read-out: MICa: MIC of the antibiotic): 8 µM
FICI (P. aeruginosa AUMC-Pa-3; strain AUMC-Pa-3, antibiotic + D-11 (MICb/MICbc 128/4)): 0.035
MICac: MIC of the antibiotic in the combination (P. aeruginosa AUMC-Pa-3; strain AUMC-Pa-3, with D-11 at MICbc 4, unit not given): 0.031
MIC (P. aeruginosa AUMC-Pa-4; Pseudomonas aeruginosa, AUMCPA4, 18 h, read-out: MICa: MIC of the antibiotic): 8 µM
FICI (P. aeruginosa AUMC-Pa-4; strain AUMC-Pa-4, antibiotic + D-11 (MICb/MICbc 128/4)): 0.094
MICac: MIC of the antibiotic in the combination (P. aeruginosa AUMC-Pa-4; strain AUMC-Pa-4, with D-11 at MICbc 4, unit not given): 0.5
FICI (P. aeruginosa AUMC-Pa-5; [2]): 0.313
MICa: MIC of the antibiotic (P. aeruginosa AUMC-Pa-5; [3]): 8
MICac: MIC of the antibiotic in the combination (P. aeruginosa AUMC-Pa-5; [4]): 2
FICI (P. aeruginosa AUMC-Pa-6; [2]): 0.313
MICa: MIC of the antibiotic (P. aeruginosa AUMC-Pa-6; [3]): 8
MICac: MIC of the antibiotic in the combination (P. aeruginosa AUMC-Pa-6; [4]): 2
reduction of the MICs (P. aeruginosa PAO1; PAO1, in the presence of 4 μM of D-11): 512 fold
MIC (P. aeruginosa PAO1; Pseudomonas aeruginosa, PAO1, 18 h, read-out: MICa: the MIC of antibiotics): 8 µM
FICI (P. aeruginosa PAO1; S3 Table, PAO1, antibiotic + 2 μM D-11): 0.078
MICac: the MIC for the antibiotic in the combination (P. aeruginosa PAO1; S3 Table, PAO1, with 2 μM D-11): 0.125 µM
MICac: the MIC for the antibiotic in the combination (P. aeruginosa PAO1; S3 Table, PAO1, with 4 μM D-11): 0.01562 µM
MICa: the MIC of antibiotics (P. aeruginosa PAO1; S3 Table, antibiotic alone, PAO1): 8 µM
MIC (P. aeruginosa ATCC27853; Pseudomonas aeruginosa, ATCC27853, 18 h, read-out: MICa: MIC of the antibiotic): 8 µM
FICI (P. aeruginosa ATCC27853; strain ATCC27853, antibiotic + D-11 (MICb/MICbc 32/4)): 0.156
MICac: MIC of the antibiotic in the combination (P. aeruginosa ATCC27853; strain ATCC27853, with D-11 at MICbc 4, unit not given): 0.5
FICI (P. aeruginosa NR-31040; antibiotic + D-11 (MICb/MICbc 128/4)): 0.281
MICa: MIC of the antibiotic (P. aeruginosa NR-31040; [3]): 8
MICac: MIC of the antibiotic in the combination (P. aeruginosa NR-31040; [4]): 2
MIC (P. aeruginosa NR-31041; Pseudomonas aeruginosa, NR31041, 18 h, read-out: MICa: MIC of the antibiotic): 8 µM
FICI (P. aeruginosa NR-31041; strain NR-31041, antibiotic + D-11 (MICb/MICbc 64/4)): 0.078
MICac: MIC of the antibiotic in the combination (P. aeruginosa NR-31041; strain NR-31041, with D-11 at MICbc 4, unit not given): 0.125
MIC (P. aeruginosa PA14; Pseudomonas aeruginosa, PA14, 18 h, read-out: MICa: MIC of the antibiotic): 8 µM
FICI (P. aeruginosa PA14; strain PA14, antibiotic + D-11 (MICb/MICbc 128/4)): 0.094
MICac: MIC of the antibiotic in the combination (P. aeruginosa PA14; strain PA14, with D-11 at MICbc 4, unit not given): 0.5
MIC (P. aeruginosa PAK; Pseudomonas aeruginosa, 18 h, read-out: MICa: MIC of the antibiotic): 8 µM
FICI (P. aeruginosa PAK; strain PAK, antibiotic + D-11 (MICb/MICbc 64/4)): 0.125
MICac: MIC of the antibiotic in the combination (P. aeruginosa PAK; strain PAK, with D-11 at MICbc 4, unit not given): 0.5
FICI (P. aeruginosa HM-214): 0.281
FICI (P. aeruginosa AUMC-Pa-1): 0.039
FICI (P. aeruginosa AUMC-Pa-2): 0.094
MIC ([1]; read-out: Antibiotic sensibility (MIC) of clinical P. aeruginosa isolate AUMC-Pa-1): 8 µM
MIC ([1]; read-out: Antibiotic sensibility (MIC) of clinical P. aeruginosa isolate AUMC-Pa-2): 8 µM
MIC ([1]; read-out: Antibiotic sensibility (MIC) of clinical P. aeruginosa isolate AUMC-Pa-3): 8 µM
MIC ([1]; read-out: Antibiotic sensibility (MIC) of clinical P. aeruginosa isolate AUMC-Pa-4): 8 µM
MIC ([1]; read-out: Antibiotic sensibility (MIC) of clinical P. aeruginosa isolate AUMC-Pa-5): 8 µM
MIC ([1]; read-out: Antibiotic sensibility (MIC) of clinical P. aeruginosa isolate AUMC-Pa-6): 8 µM
MIC ([1]; read-out: Antibiotic sensibility (MIC) of clinical P. aeruginosa isolate HM-214): 8 µM
MIC ([1]; read-out: Antibiotic sensibility (MIC) of clinical P. aeruginosa isolate NR-31040): 8 µM
MIC ([1]; read-out: Antibiotic sensibility (MIC) of clinical P. aeruginosa isolate NR-31041): 8 µM
